Experimental data: patent US9340590B2 (priority 2011, dated 2016)
Positions of bridges follow the written chain, without caps; N, C: chain ends. Non-standard residues stand in square brackets, D forms with d. Residues, ends and D or L forms follow the SMILES beside them. Cit = NC(=O)NCCC[C@H](N)C(=O)O; Lys(Me) = CNCCCC[C@H](N)C(=O)O

How the values were obtained:
Assay in all cases: cell-based
hNav1.7 = hNav1.7 (Homo sapiens, UniProt Q15858); format: cell-based; settings: IonWorks Quattro, use-dependent block, hNav1.7; read-out: IWQ Use Nav1.7
hNav1.5 = hNav1.5 (Homo sapiens, UniProt Q14524); settings: IonWorks Quattro, use-dependent block, hNav1.5; read-out: IWQ Use Nav1.5
hNav1.3 = hNav1.3 (Homo sapiens, UniProt Q9NY46); settings: IonWorks Quattro, use-dependent block, hNav1.3; read-out: IWQ Use Nav1.3

Chain of hNav1.5 (Q14524 whole entry, looked up): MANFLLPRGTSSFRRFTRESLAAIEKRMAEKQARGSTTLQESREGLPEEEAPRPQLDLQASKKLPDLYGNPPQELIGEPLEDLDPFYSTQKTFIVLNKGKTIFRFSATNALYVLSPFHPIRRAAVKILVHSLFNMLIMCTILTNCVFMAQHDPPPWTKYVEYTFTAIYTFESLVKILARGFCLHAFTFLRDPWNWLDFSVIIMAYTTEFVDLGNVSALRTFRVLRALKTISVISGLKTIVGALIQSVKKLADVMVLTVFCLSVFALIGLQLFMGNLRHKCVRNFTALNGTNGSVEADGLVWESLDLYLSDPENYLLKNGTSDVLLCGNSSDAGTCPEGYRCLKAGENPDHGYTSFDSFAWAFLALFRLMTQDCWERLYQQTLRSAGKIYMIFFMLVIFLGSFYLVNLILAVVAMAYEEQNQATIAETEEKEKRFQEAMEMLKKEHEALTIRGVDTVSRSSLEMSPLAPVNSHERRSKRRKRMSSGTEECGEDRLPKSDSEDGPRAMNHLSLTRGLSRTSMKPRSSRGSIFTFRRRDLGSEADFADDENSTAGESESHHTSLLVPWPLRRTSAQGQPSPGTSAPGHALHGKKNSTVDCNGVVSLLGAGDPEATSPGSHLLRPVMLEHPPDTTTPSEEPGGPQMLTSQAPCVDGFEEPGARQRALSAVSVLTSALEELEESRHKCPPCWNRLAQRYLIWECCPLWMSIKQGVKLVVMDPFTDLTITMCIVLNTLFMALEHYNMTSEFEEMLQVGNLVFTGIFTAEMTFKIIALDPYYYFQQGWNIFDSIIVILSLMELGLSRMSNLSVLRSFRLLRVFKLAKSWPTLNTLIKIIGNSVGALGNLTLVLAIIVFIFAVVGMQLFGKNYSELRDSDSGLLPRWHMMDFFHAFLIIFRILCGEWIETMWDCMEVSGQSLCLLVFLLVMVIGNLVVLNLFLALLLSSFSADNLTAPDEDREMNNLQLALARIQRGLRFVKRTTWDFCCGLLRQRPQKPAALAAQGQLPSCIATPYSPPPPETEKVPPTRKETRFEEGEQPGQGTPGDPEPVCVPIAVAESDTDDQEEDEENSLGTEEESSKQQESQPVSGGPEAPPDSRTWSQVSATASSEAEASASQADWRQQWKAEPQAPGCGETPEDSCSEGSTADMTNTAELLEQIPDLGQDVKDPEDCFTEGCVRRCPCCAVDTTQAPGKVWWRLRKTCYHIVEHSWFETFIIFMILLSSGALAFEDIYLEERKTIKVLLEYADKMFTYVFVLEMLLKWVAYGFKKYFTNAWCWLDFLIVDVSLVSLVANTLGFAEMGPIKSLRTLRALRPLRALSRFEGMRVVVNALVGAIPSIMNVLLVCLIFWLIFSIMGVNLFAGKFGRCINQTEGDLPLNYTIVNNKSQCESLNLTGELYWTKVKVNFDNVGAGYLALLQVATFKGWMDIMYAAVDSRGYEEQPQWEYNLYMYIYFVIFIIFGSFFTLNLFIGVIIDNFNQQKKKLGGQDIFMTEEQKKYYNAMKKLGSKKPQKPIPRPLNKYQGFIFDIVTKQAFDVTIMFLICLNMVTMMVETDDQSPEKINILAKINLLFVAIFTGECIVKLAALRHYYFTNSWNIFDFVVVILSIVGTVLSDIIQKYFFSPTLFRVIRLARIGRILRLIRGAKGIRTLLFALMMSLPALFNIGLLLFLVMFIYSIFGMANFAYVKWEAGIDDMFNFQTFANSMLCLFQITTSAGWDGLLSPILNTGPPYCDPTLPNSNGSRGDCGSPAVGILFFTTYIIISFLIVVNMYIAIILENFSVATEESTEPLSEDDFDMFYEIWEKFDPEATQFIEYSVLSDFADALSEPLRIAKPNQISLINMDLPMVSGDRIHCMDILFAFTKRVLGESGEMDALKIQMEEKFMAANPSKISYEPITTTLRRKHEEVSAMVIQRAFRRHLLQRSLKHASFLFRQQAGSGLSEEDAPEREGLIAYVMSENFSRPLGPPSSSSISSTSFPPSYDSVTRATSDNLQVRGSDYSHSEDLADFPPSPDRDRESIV
Chain of hNav1.7 (Q15858 whole entry, looked up): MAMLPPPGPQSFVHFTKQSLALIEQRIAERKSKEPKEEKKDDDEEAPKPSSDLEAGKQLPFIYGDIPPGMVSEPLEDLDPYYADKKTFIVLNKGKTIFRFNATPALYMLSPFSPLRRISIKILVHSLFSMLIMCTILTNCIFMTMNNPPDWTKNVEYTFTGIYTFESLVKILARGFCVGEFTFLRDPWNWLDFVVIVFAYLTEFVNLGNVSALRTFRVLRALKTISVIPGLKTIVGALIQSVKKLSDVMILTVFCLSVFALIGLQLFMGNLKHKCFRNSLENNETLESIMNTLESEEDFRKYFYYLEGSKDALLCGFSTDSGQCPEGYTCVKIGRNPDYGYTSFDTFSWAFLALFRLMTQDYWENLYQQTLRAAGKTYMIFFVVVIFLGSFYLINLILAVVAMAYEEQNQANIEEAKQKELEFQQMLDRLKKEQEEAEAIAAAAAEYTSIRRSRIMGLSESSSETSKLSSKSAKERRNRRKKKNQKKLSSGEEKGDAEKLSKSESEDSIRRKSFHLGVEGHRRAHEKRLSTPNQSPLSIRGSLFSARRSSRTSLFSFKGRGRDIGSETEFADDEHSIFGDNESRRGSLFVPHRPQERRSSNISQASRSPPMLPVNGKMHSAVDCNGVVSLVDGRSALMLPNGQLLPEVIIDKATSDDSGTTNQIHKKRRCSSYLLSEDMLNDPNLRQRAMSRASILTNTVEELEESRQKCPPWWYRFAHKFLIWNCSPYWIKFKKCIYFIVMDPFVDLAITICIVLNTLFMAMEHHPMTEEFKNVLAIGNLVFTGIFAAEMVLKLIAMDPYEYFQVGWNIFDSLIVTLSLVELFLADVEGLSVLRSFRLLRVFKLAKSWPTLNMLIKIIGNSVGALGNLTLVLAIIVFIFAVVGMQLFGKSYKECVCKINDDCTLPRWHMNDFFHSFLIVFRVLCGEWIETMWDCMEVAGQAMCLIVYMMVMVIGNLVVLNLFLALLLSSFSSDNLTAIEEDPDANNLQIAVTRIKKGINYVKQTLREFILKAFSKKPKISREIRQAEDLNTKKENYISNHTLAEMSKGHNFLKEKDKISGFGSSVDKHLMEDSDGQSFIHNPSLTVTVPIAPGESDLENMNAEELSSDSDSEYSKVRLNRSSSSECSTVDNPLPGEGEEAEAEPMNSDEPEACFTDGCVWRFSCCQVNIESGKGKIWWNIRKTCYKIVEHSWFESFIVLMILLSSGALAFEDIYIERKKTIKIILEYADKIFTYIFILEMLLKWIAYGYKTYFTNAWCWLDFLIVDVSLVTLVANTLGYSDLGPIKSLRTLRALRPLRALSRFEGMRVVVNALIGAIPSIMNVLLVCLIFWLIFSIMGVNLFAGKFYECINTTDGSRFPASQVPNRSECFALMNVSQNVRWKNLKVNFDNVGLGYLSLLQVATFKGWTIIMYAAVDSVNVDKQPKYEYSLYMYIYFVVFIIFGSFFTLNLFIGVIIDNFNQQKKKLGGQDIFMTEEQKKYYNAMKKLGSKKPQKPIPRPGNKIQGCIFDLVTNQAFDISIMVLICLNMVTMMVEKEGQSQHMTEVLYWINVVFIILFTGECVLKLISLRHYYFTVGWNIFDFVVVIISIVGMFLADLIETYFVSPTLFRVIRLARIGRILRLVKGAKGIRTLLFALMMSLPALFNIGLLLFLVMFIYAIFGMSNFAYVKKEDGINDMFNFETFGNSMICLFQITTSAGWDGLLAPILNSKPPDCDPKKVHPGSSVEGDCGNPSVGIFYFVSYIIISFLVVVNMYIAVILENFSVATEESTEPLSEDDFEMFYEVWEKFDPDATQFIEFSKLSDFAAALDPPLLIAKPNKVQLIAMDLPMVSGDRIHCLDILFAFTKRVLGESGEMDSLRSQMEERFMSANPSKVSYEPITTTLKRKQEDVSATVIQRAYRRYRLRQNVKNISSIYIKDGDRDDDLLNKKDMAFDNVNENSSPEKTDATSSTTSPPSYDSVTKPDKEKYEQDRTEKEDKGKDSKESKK

| Structure (SMILES) | IC50 (hNav1.7) [µM] | IC50 (hNav1.5) [µM] | IC50 (hNav1.3) [µM] |
| --- | --- | --- | --- |
| CC[C@H](C)[C@@H]1NC(=O)[C@@H]2CSSC[C@@H]3NC(=O)[C@H](C(C)C)NC(=O)[C@H](CC(C)C)NC(=O)[C@H](CC(N)=O)NC(=O)[C@@H]4CCCN4C(=O)[C@H](CCCNC(=N)N)NC(=O)[C@H](CSSC[C@H](NC(=O)[C@@H](N)CC(=O)O)C(=O)N[C@@H](CC(C)C)C(=O)NCC(=O)N[C@@H](C)C(=O)N[C@@H](CCSC)C(=O)N[C@@H](CCCNC(=N)N)C(=O)N[C@@H](CCCCN)C(=O)N2)NC(=O)[C@H](CSSC[C@@H](C(=O)N[C@@H](CCCCN)C(=O)N[C@@H](Cc2ccc(O)cc2)C(=O)N[C@H](C(=O)N[C@@H](Cc2ccccc2)C(N)=O)C(C)C)NC(=O)[C@H](Cc2c[nH]c4ccccc24)NC(=O)[C@H](CC(C)C)NC(=O)[C@H](Cc2c[nH]cn2)NC(=O)[C@H]([C@@H](C)O)NC(=O)[C@H](CCCNC(=N)N)NC(=O)[C@H](CO)NC3=O)NC(=O)[C@H](CCCCN)NC(=O)[C@H](CC(=O)O)NC(=O)[C@H](CC(N)=O)NC(=O)[C@H](CC(=O)O)NC(=O)[C@@H]2CCCN2C1=O [compound 766] (H-DCLGAMRKCIPDNDKCCRPNLVCSRTHLWCKYVF-NH2; disulfide 2-17, 9-23, 16-30) | 1.1 | 49.3 | 2.7 |
| CC[C@H](C)[C@@H]1NC(=O)[C@@H]2CSSC[C@@H]3NC(=O)[C@H](C(C)C)NC(=O)[C@H](CC(C)C)NC(=O)[C@H](CC(N)=O)NC(=O)[C@@H]4CCCN4C(=O)[C@H](CCCNC(=N)N)NC(=O)[C@H](CSSC[C@H](NC(=O)[C@@H](N)CC(=O)O)C(=O)N[C@@H](CC(C)C)C(=O)NCC(=O)N[C@@H](C)C(=O)N[C@@H](CCSC)C(=O)N[C@@H](CCCNC(=N)N)C(=O)N[C@@H](CCCCN)C(=O)N2)NC(=O)[C@H](CSSC[C@@H](C(=O)N[C@@H](CCCCN)C(=O)N[C@@H](Cc2ccc(O)cc2)C(=O)N[C@H](C(=O)N[C@@H](Cc2ccccc2)C(N)=O)C(C)C)NC(=O)[C@H](Cc2c[nH]c4ccccc24)NC(=O)[C@H](CC(N)=O)NC(=O)[C@H](Cc2c[nH]cn2)NC(=O)[C@H]([C@@H](C)O)NC(=O)[C@H](CCCNC(=N)N)NC(=O)[C@H](CO)NC3=O)NC(=O)[C@H](CCCCN)NC(=O)[C@H](CC(=O)O)NC(=O)[C@H](CC(N)=O)NC(=O)[C@H](CC(=O)O)NC(=O)[C@@H]2CCCN2C1=O [compound 767] (H-DCLGAMRKCIPDNDKCCRPNLVCSRTHNWCKYVF-NH2; disulfide 2-17, 9-23, 16-30) | 1.7 | > 50 | 3.2 |
| CC[C@H](C)[C@@H]1NC(=O)[C@@H]2CSSC[C@@H]3NC(=O)[C@H](C(C)C)NC(=O)[C@H](CC(C)C)NC(=O)[C@H](CC(N)=O)NC(=O)[C@@H]4CCCN4C(=O)[C@H](CCCNC(=N)N)NC(=O)[C@H](CSSC[C@H](NC(=O)[C@@H](N)CC(=O)O)C(=O)N[C@@H](CC(C)C)C(=O)NCC(=O)N[C@@H](C)C(=O)N[C@@H](CCSC)C(=O)N[C@@H](CCCNC(=N)N)C(=O)N[C@@H](CCCCN)C(=O)N2)NC(=O)[C@H](CSSC[C@@H](C(=O)N[C@@H](CCCCN)C(=O)N[C@@H](Cc2ccc(O)cc2)C(=O)N[C@H](C(=O)N[C@@H](Cc2ccccc2)C(N)=O)C(C)C)NC(=O)[C@H](Cc2c[nH]c4ccccc24)NC(=O)[C@H](CCCCN)NC(=O)[C@H](Cc2c[nH]cn2)NC(=O)[C@H]([C@@H](C)O)NC(=O)[C@H](CCCNC(N)=O)NC(=O)[C@H](CO)NC3=O)NC(=O)[C@H](CCCCN)NC(=O)[C@H](CC(=O)O)NC(=O)[C@H](CC(N)=O)NC(=O)[C@H](CC(=O)O)NC(=O)[C@@H]2CCCN2C1=O [compound 768] (H-DCLGAMRKCIPDNDKCCRPNLVCS[Cit]THKWCKYVF-NH2; disulfide 2-17, 9-23, 16-30) | 1.8 | 23.5 | 3.2 |
| CC[C@H](C)[C@@H]1NC(=O)[C@@H]2CSSC[C@@H]3NC(=O)[C@H](C(C)C)NC(=O)[C@H](CC(C)C)NC(=O)[C@H](CC(N)=O)NC(=O)[C@@H]4CCCN4C(=O)[C@H](CCCNC(=N)N)NC(=O)[C@H](CSSC[C@H](NC(=O)[C@@H](N)CC(=O)O)C(=O)N[C@@H](CC(C)C)C(=O)NCC(=O)N[C@@H](C)C(=O)N[C@@H](CCSC)C(=O)N[C@@H](CCCNC(=N)N)C(=O)N[C@@H](CCCCN)C(=O)N2)NC(=O)[C@H](CSSC[C@@H](C(=O)N[C@@H](CCCCN)C(=O)N[C@@H](Cc2ccc(O)cc2)C(=O)N[C@H](C(=O)N[C@@H](Cc2ccccc2)C(N)=O)C(C)C)NC(=O)[C@H](Cc2c[nH]c4ccccc24)NC(=O)[C@H](CC(=O)O)NC(=O)[C@H](Cc2c[nH]cn2)NC(=O)[C@H]([C@@H](C)O)NC(=O)[C@H](CCCNC(=N)N)NC(=O)[C@H](CO)NC3=O)NC(=O)[C@H](CCCCN)NC(=O)[C@H](CC(=O)O)NC(=O)[C@H](CC(N)=O)NC(=O)[C@H](CC(=O)O)NC(=O)[C@@H]2CCCN2C1=O [compound 769] (H-DCLGAMRKCIPDNDKCCRPNLVCSRTHDWCKYVF-NH2; disulfide 2-17, 9-23, 16-30) | > 5 | 39 | > 5 |
| CC[C@H](C)[C@@H]1NC(=O)[C@@H]2CSSC[C@@H]3NC(=O)[C@H](C(C)C)NC(=O)[C@H](CC(C)C)NC(=O)[C@H](CC(N)=O)NC(=O)[C@@H]4CCCN4C(=O)[C@H](CCCNC(=N)N)NC(=O)[C@H](CSSC[C@H](NC(=O)[C@@H](N)CC(=O)O)C(=O)N[C@@H](CC(C)C)C(=O)NCC(=O)N[C@@H](C)C(=O)N[C@@H](CCSC)C(=O)N[C@@H](CCCNC(=N)N)C(=O)N[C@@H](CCCCN)C(=O)N2)NC(=O)[C@H](CSSC[C@@H](C(=O)N[C@@H](CCCCN)C(=O)N[C@@H](Cc2ccc(O)cc2)C(=O)N[C@H](C(=O)N[C@@H](Cc2ccccc2)C(N)=O)C(C)C)NC(=O)[C@H](Cc2c[nH]c4ccccc24)NC(=O)[C@H](CCSC)NC(=O)[C@H](Cc2c[nH]cn2)NC(=O)[C@H]([C@@H](C)O)NC(=O)[C@H](CCCNC(=N)N)NC(=O)[C@H](CO)NC3=O)NC(=O)[C@H](CCCCN)NC(=O)[C@H](CC(=O)O)NC(=O)[C@H](CC(N)=O)NC(=O)[C@H](CC(=O)O)NC(=O)[C@@H]2CCCN2C1=O [compound 770] (H-DCLGAMRKCIPDNDKCCRPNLVCSRTHMWCKYVF-NH2; disulfide 2-17, 9-23, 16-30) | 1 | 45.4 | 4.1 |
| CC[C@H](C)[C@@H]1NC(=O)[C@@H]2CSSC[C@@H]3NC(=O)[C@H](C(C)C)NC(=O)[C@H](CC(C)C)NC(=O)[C@H](CC(N)=O)NC(=O)[C@@H]4CCCN4C(=O)[C@H](CCCNC(=N)N)NC(=O)[C@H](CSSC[C@H](NC(=O)[C@@H](N)CC(=O)O)C(=O)N[C@@H](CC(C)C)C(=O)NCC(=O)N[C@@H](C)C(=O)N[C@@H](CCSC)C(=O)N[C@@H](CCCNC(=N)N)C(=O)N[C@@H](CCCCN)C(=O)N2)NC(=O)[C@H](CSSC[C@@H](C(=O)N[C@@H](CCCCN)C(=O)N[C@@H](Cc2ccc(O)cc2)C(=O)N[C@H](C(=O)N[C@@H](Cc2ccccc2)C(N)=O)C(C)C)NC(=O)[C@H](Cc2c[nH]c4ccccc24)NC(=O)[C@H](CCCCNC)NC(=O)[C@H](Cc2c[nH]cn2)NC(=O)[C@H]([C@@H](C)O)NC(=O)[C@H](CCCNC(=N)N)NC(=O)[C@H](CO)NC3=O)NC(=O)[C@H](CCCCN)NC(=O)[C@H](CC(=O)O)NC(=O)[C@H](CC(N)=O)NC(=O)[C@H](CC(=O)O)NC(=O)[C@@H]2CCCN2C1=O [compound 771] (H-DCLGAMRKCIPDNDKCCRPNLVCSRTH[Lys(Me)]WCKYVF-NH2; disulfide 2-17, 9-23, 16-30) | 1.6 | 40.1 | 1.8 |
| CSCC[C@@H]1NC(=O)[C@H]([C@@H](C)O)NC(=O)CNC(=O)[C@H](CC(C)C)NC(=O)[C@@H](NC(=O)[C@@H](N)CC(=O)O)CSSC[C@@H]2NC(=O)[C@@H]3CSSC[C@@H](C(=O)N[C@@H](CCCCN)C(=O)N[C@@H](Cc4ccc(O)cc4)C(=O)N[C@H](C(=O)N[C@@H](Cc4ccccc4)C(N)=O)C(C)C)NC(=O)[C@H](Cc4c[nH]c5ccccc45)NC(=O)[C@H](CCCCN)NC(=O)[C@H](Cc4c[nH]cn4)NC(=O)[C@H]([C@@H](C)O)NC(=O)[C@H](CCCNC(=N)N)NC(=O)[C@H](CO)NC(=O)[C@H](CSSC[C@H](NC(=O)[C@H](CCCCN)NC(=O)[C@H](CCCNC(=N)N)NC1=O)C(=O)N[C@@H](CC(=O)O)C(=O)N1CCC[C@H]1C(=O)N[C@@H](CCC(=O)O)C(=O)N[C@@H](CC(N)=O)C(=O)N[C@@H](CC(=O)O)C(=O)N[C@@H](CCCCN)C(=O)N3)NC(=O)[C@H](C(C)C)NC(=O)[C@H](CC(C)C)NC(=O)[C@H](CC(N)=O)NC(=O)[C@@H]1CCCN1C(=O)[C@H](CCCNC(=N)N)NC2=O [compound 773] (H-DCLGTMRKCDPENDKCCRPNLVCSRTHKWCKYVF-NH2; disulfide 2-17, 9-23, 16-30) | 4.5 | 28.4 | 3.4 |
| CC[C@H](C)[C@@H]1NC(=O)[C@@H]2CSSC[C@@H]3NC(=O)[C@H](C(C)C)NC(=O)[C@H](CC(C)C)NC(=O)[C@H](CC(N)=O)NC(=O)[C@@H]4CCCN4C(=O)[C@H](CCCNC(=N)N)NC(=O)[C@H](CSSC[C@H](NC(=O)[C@@H](N)CC(=O)O)C(=O)N[C@@H](CC(C)C)C(=O)NCC(=O)N[C@@H](C)C(=O)N[C@@H](CCSC)C(=O)N[C@@H](CCCNC(=N)N)C(=O)N[C@@H](CCCCN)C(=O)N2)NC(=O)[C@H](CSSC[C@@H](C(=O)N[C@@H](CCCCN)C(=O)N[C@@H](Cc2ccc(O)cc2)C(=O)N[C@H](C(=O)N[C@@H](Cc2ccccc2)C(N)=O)C(C)C)NC(=O)[C@H](Cc2c[nH]c4ccccc24)NC(=O)[C@H](CCCCN)NC(=O)[C@H](Cc2c[nH]cn2)NC(=O)[C@H](CCC(=O)O)NC(=O)[C@H](CCCNC(=N)N)NC(=O)[C@H](CO)NC3=O)NC(=O)[C@H](CCCCN)NC(=O)[C@H](CC(=O)O)NC(=O)[C@H](CC(N)=O)NC(=O)[C@H](CC(=O)O)NC(=O)[C@@H]2CCCN2C1=O [compound 787] (H-DCLGAMRKCIPDNDKCCRPNLVCSREHKWCKYVF-NH2; disulfide 2-17, 9-23, 16-30) | > 5 | 27.3 | > 5 |
